From patent US5840725A, “Substituted oximes, hydrazones and olefins as neurokinin antagonists” (Schering Corporation, priority 1997, dated 1998)
Read-outs that look alike come from different tables or passages of the source.

Assays:
[1] = target: T1, human neurokinin 1 (NK1) receptor (Homo sapiens, UniProt P25103); test: Neurokinin Receptor Binding Assay, NK1
T1 construct: expressed in transfected cells; host or cells: Chinese Hamster ovary (CHO) cells
Experimental: (§1) Neurokinin Receptor Binding Assay(s)
(§2) Chinese Hamster ovary (CHO) cells transfected with the coding regions for the human neurokinin 1 (NK1) of the human neurokinin 2 (NK2) receptors are grown in Dulbecco's minimal essential medium supplemented with 10% fetal calf serum, 0.1 mM non-essential amino acids, 2 mM glutamine, 100units/ml of penicillin and streptomycin, and 0.8 mg of G418/ml at 37° C. in a humidified atmosphere containing 5% CO2.
(§3) Cells are detached from T-175 flasks with a sterile solution containing 5 mM EDTA in phosphate buffered saline. Cells are harvested by centrifugation and washed in RPMl media at […] for 5 minutes. The pellet is resuspended inTris-HCl (pH7.4) containing 1 uM phsphoramidon and 4 ug/ml of chymostatin at a cell density of 30×10^6 cells/ml. The suspension is then homogenized in a Brinkman Polytron (setting 5) for 30-45 seconds. The homogenate is centrifuged at 800×g for 5 min at 4° C. to collect unbroken cells and nuclei. The supernatant is centrifuged in a Sorvall RC5C at 19,000 rpm ([…]) for 30 min at 4° C. The pellet is resuspended, an aliquot is removed for a protein determination (BCA) and washed again. The resulting pellet is stored at -80° C.
(§4) To assay receptor binding, 50 μl of [^3 H]-Substance P (9-Sar, 11 -Met) (specific activity 41 Ci/mmol) (Dupont-NEN) (0.8 nM for the NK-1 assay) or [^3 H]-Neurokinin A (specific activity 114 Ci/mmole) (Zenca) (1.0 nM for the NK-2 assay) is added to tubes containing buffer (50 mM Tris-HCl (pH 7.4) with 1 mM MnCl2 and 0.2% Bovine Serum Albumin) and either DMSO or test compound. Binding is initiated by the addition of 100 μl of membrane (10-20 μg) containing the human NK-1 or NK-2 receptor in a final volume of 200 μl. After 40 minutes at room temperature, the reaction is stopped by rapid filtration onto Whatman GF/C filters which have been presoaked in 0.3% polyethylenimine. Filters are washed 2 times with 3 ml of 50 mM Tris-HCl (pH7.4). Filters are added to 6 mIs of Ready-Safe liquid scintillation cocktail and quantified by liquid scintillation spectrometry in a LKB 1219 RackBeta counter. Non-specific binding is determined by the addition of either 1 μM of CP-99994 (NK-1) or 1 μM SR-48968 (NK-2) (both synthesized by the chemistry department of Schering-Plough Research Institute). IC50 values are determined from competition binding curves and Ki values are determined according to Cheng and Prusoff using the experimentally determined value of 0.8 nM for the NK-1 receptor and 2.4 nM for the NK-2 receptor.
(§5) % Inhibition is the difference between the percent of maximum specific binding (MSB) and 100%. The percent of MSB is defined by the following equation, wherein "dpm" is disintegrations per minute: [formula]

[2] = target: T2, human neurokinin 2 (NK2) receptor (Homo sapiens, UniProt P21452); test: Neurokinin Receptor Binding Assay, NK2; settings: for inhibition at 1 µM: read-out: % Inhibition NK2 (1 μM dose)
T2 construct: expressed in transfected cells; host or cells: Chinese Hamster ovary (CHO) cells
T2 sequence (P21452 1-398): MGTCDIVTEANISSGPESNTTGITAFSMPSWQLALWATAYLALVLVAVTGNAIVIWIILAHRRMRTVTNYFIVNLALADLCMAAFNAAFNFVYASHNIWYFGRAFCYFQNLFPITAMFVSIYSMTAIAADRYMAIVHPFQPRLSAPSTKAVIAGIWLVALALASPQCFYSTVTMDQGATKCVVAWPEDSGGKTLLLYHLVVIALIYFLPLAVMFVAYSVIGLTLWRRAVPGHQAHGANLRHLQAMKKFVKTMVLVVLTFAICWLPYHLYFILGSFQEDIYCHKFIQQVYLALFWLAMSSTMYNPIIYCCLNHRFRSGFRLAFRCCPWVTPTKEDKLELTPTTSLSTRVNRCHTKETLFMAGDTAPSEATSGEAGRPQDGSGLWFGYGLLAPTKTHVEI
Experimental: as §1, §2, §3, §4, §5

NK3 = target: T3, NK3 (Homo sapiens, UniProt P29371); test: NK3 activity (procedure similar to literature); type: binding
T3 sequence (P29371 1-465): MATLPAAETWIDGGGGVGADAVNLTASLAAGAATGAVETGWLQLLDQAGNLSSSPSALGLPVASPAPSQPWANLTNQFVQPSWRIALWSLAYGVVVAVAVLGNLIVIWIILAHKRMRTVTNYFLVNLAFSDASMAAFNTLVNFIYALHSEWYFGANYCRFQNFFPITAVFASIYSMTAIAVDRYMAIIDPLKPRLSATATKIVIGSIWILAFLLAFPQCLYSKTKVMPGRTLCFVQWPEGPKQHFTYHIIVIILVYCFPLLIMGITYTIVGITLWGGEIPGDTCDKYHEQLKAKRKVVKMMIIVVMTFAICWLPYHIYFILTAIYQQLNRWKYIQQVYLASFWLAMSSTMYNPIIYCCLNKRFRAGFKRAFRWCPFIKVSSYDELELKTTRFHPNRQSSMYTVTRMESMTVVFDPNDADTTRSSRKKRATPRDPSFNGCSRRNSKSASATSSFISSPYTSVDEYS
Experimental: NK3 activity is determined by following a procedure similar to that described in the literature, e.g., Molecular PharmacoL, 48 (1995), p. 711-716.

[3] = [3H]-Substance P, CHO cell membranes
[4] = 1 μM dose, [3H]-Neurokinin A, CHO cell membranes
[5] = [3H]-Substance P, CHO cell membranes, read-out: Ki (NK1)
[6] = [3H]-Neurokinin A, CHO cell membranes, read-out: Ki (NK2)

T1 sequence (P25103 whole entry): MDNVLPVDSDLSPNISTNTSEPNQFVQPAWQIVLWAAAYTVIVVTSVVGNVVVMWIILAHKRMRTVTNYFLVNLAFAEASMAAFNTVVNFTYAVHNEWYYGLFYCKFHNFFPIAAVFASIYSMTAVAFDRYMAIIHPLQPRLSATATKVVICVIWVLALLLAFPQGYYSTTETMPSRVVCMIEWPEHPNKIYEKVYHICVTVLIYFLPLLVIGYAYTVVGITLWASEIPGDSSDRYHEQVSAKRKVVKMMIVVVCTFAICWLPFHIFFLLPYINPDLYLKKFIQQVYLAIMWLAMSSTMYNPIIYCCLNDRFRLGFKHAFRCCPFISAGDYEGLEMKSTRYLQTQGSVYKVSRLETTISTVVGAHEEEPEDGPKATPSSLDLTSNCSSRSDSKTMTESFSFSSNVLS

| Structure (SMILES) | inhibition at 1 µM [1, 3] [%] | inhibition at 1 µM [2, 4] [%] | Ki [1] [nM] | Ki [2] [nM] | inhibition at 1 µM [2] [%] | Ki (NK3) [nM] | Ki [1, 5] [nM] | Ki [2, 6] [nM] |
| --- | --- | --- | --- | --- | --- | --- | --- | --- |
| OC1(c2ccccc2)CCN(CCC(C(COCc2cc(C(F)(F)F)cc(C(F)(F)F)c2)=NOCc2ccccc2)c2ccc(Cl)c(Cl)c2)CC1 (stereo not shown) [Example 1C] | 44 | 16 | – | – | – | – | – | – |
| CON=C(COCc1cc(C(F)(F)F)cc(C(F)(F)F)c1)C(CCN1CCC(O)(c2ccccc2)CC1)c1ccc(Cl)c(Cl)c1 (stereo not shown) [Example 1] | 88 | – | 25 | 20 | 95 | 109 | – | – |
| CCOC(=O)C=C(COCc1cc(C(F)(F)F)cc(C(F)(F)F)c1)C(CCN1CCC(O)(c2ccccc2)CC1)c1ccc(Cl)c(Cl)c1 (stereo not shown) [Example 2] | 69 | 17 | – | – | – | – | 40 | – |
| CN1CCN(N=C(COCc2cc(C(F)(F)F)cc(C(F)(F)F)c2)C(CCN2CCC(O)(c3ccccc3)CC2)c2ccc(Cl)c(Cl)c2)CC1 (stereo not shown) [Example 7] | 69 | 13 | – | – | – | – | 121 | – |
| CON=C(COCc1cccc(C)c1F)C(CCN1CCC(O)(c2ccccc2)CC1)c1ccc(Cl)c(Cl)c1 (stereo not shown) [Example 22AK] | 67 | 95 | – | – | – | – | 132 | 2 |
| CON=C(COCc1noc(C(C)(C)C)n1)C(CCN1CCC(O)(c2ccccc2)CC1)c1ccc(Cl)c(Cl)c1 (stereo not shown) [Example 22AL] | 12 | 100 | – | – | – | – | – | 2 |
| OCCN(CC=C(COCc1cc(C(F)(F)F)cc(C(F)(F)F)c1)C(CCN1CCC(O)(c2ccccc2)CC1)c1ccc(Cl)c(Cl)c1)CCO (stereo not shown) [Example 35C] | 93 | 0 | – | – | – | – | 2 | – |
| NC(CON=C(COCc1cc(C(F)(F)F)cc(C(F)(F)F)c1)C(CCN1CCC(N2CCCCC2)CC1)c1ccc(Cl)c(Cl)c1)=NO (stereo not shown) [Example 39F] | 93 | 96 | – | – | – | – | 4.3 | 12 |
| CON=C(COCc1cc(C(F)(F)F)cc(C(F)(F)F)c1)C(CCN1CCC(C(=O)N2CCCC2)CC1)c1ccc(Cl)c(Cl)c1 (stereo not shown) [Example 42L] | 91 | 86 | – | – | – | – | 4.6 | 123 |
